Patent US20230248652A1, “BIODEGRADEABLE MULTI-CAVITY MICROPARTICLES AND THEIR USE IN TREATMENT” (OXFORD UNIVERSITY INNOVATION LIMITED, priority 2020, published 2023)

Tested on: 3D foam cell spheroid
Test: HIFU implantation of loaded mcPLGA MPs into 3D foam cell spheroids (fluorescence)
Format: cell-based, human
Settings: HIFU exposure, 1 mg/ml
Description: As the cells in the ex vivo porcine artery were considered non-viable, we have also tested the ability to deliver DAPI to viable cells using a 3D foam cell spheroid model (FIG. 13).
THP-1 cells, a human monocytic cell line (ATCC, Rockville, MD) were routinely cultured in Roswell Park Memorial Institute (RPMI) 1640 Medium supplemented with 100 IU/ml of penicillin, 100 µg/ml streptomycin, 2 mmol/l L-glutamine, 10% (vol/vol) FBS and incubated in a humidified atmosphere of 5% CO2 in an incubator at 37° C. The medium was replaced every 2-3 days by centrifuging these suspended cells at 125 g for 5 min. For differentiation of THP-1 monocytes into macrophages, THP-1 cells were seeded at a density of 7 × 10^5 cells/ml with differentiation medium, growth medium supplemented with 50 ng/mL phorbol 12-myristate 13-acetate (PMA), for 3 days to obtain macrophages. Subsequently, for foam cells induction, macrophages were incubated with 100 µg/ml oxLDL (Low Density Lipoprotein from Human Plasma, oxidized; Invitrogen,USA) in the differentiation medium for 2 days.
Foam cells were used to produce a three-dimensional (3D) foam cell spheroid model by modification of the hanging drop method. Single-cell suspensions were generated from trypsinized monolayers. […]
Fluorescence microscopy was used to analyze the distribution of mcPLGA MPs and the release of therapeutics (FIG. 27c). […]

## N=C(N)c1ccc(-c2cc3ccc(C(=N)N)cc3[nH]2)cc1 [DAPI]
  delivery of DAPI / particle distribution in foam cell spheroid: diffused through the membranes of the cells to stain the DNA of the foam cells
